Experimental data from ChEMBL document CHEMBL1129685, “Mechanism-based inhibition of L-pipecolate oxidase by 4,5-dehydro-L-pipecolic acid” (J Med Chem, 1996).

Target: T1, Peroxisomal sarcosine oxidase (Homo sapiens) (UniProt Q9P0Z9)
T1 sequence (whole entry): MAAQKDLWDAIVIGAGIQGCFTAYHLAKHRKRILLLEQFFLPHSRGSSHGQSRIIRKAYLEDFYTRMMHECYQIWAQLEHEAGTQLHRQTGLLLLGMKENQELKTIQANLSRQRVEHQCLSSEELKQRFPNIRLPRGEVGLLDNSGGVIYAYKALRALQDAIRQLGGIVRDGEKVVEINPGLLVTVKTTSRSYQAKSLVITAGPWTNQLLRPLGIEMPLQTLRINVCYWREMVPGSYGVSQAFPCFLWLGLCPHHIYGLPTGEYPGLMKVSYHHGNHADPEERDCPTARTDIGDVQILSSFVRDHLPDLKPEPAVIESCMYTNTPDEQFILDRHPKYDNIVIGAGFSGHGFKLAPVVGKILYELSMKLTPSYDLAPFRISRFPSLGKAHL
Assay: Kinetic parameter inactivation constant was determined on L-pipecolate oxidase from Rhesus monkey
Conditions: Cercopithecidae; target entry is the homologue from another species

Kiact: 2 min⁻¹
SMILES: O=C(O)[C@@H]1CCCCN1
